The results in this text go back to patent US12091405B2, “Substituted pyrazole compounds as indoleamine 2,3-dioxygenase inhibitors” (Merck Sharp & Dohme LLC, priority 2018, dated 2024).

Assay [1] deals with T1, IDO1 (Homo sapiens, UniProt P14902). The experiment in a line: IDO1 Cellular Assay in HeLa Cells Stimulated with IFNγ. Type of assay: cell-based. The conditions noted are these: IFNγ 100 ng/mL, 300 uM L-tryptophan, about 48 hours, fluorescence readout, read-out: IDO1 HELA Cell Assay, IC50.
For assay [2], the target named is T1, IDO1. The experiment in a line: IDO1 Human Whole Blood Assay. Type of assay: cell-based. More on the design: Human whole blood was drawn in sodium heparin coated tubes from healthy internal donors; from tissue; host or cells: human whole blood from healthy donors, stimulated with LPS and IFNγ. Particulars: LPS and IFNγ 100 ng/mL, overnight (18 h), kynurenine by LC/MS/MS. The method, then: IDO1 Human Whole Blood Assay
Compounds to be tested were serially diluted in ten 3-fold steps in DMSO starting from 10 mM. 3 μL of compound dilutions or DMSO alone were then dispensed from the dilution plate into a polypropylene 96-well assay plate containing 97 μL of RPMI medium using an Echo 555 acoustic liquid handler (Labcyte). LPS and IFNγ was prepared in RPMI medium to a 10× of final conc. (1000 ng/mL), final concentration is 100 ng/mL.
Human whole blood was drawn in sodium heparin coated tubes from healthy internal donors. 240 μL of blood was transferred to each of the wells of a v-bottom 96 well plate. 30 μL of compound was transferred from intermediate dilution plate, and incubated for 15 min. 30 μL from stimulants was then transferred to blood and mixed thoroughly. Plate was covered with breathable membrane and incubated at 37° C. for overnight (18 h).
On day 2, isotope labeled standard solutions of kynurenine and tryptophan was made in water at 10× concentration and 30 μL was added to the blood at 3 μM final concentration. The assay plates were centrifuged at 300×G for 10 min with no brake to separate plasma from red blood cells. 60 μL of plasma samples was removed without disturbing red blood cells. Plasma was diluted with RPMI in 1:1 ratio and proteins were precipitated out with two volumes of Acetonitrile. The plates were centrifuged at 4000×G for 60 min. 20 μL of supernatant was carefully transferred to a 384 well plate containing 40 μL of 0.1% formic acid in water and analyzed by LC/MS/MS.
LC/MS/MS analyses were performed using Thermo Fisher's LX4-TSQ Quantum Ultra system. This system consists of four Agilent binary high-performance liquid chromatography (HPLC) pumps and a TSQ Quantum Ultra triple quadrupole MS/MS instrument. For each sample, 5 μL were injected onto an Atlantis T3 column (2.1 mm×150 mm, 3 μm particle size) from Waters. The mobile phase gradient pumped at 0.8 mL/min was used to elute the analytes from the column at 25 EC. The elution started at 0% B increasing linearly to 25% B at 6.5 min, holding at 25% for 1 min, re-equilibrating to 10 min. Mobile phase A consisted of 0.1% formic acid in water. Mobile phase B consisted of 0.1% of formic acid in acetonitrile. Data were acquired in positive mode using a HESI interface. The operational parameters for the TSQ Quantum Ultra instrument were a spray voltage of 4000 V, capillary temperature of 380° C., vaporizer temperature 400° C., shealth gas 60 arbitrary units, Aux gas 20 arbitrary units, tube lens 85 and collision gas 1.2 mTorr. SRM chromatograms of kynurenine (Qi: 209.2>Q3:94.0) and internal standard (Qi: 215.3>Q3:98.2) were collected for 90 sec. The peak area was integrated by Xcalibur Quan software. The ratios between the kynurenine generated in the reaction and 2D6-Kynurenine spiked-in internal standard were used to generate percentage inhibition and IC50 values. Compounds were titrated and IC50's were calculated by 4 parameter sigmoidal curve fitting formula.
The biological activity data of selective compounds using the IDO1 human whole blood assay described above are summarized in the table below.

T1 sequence (P14902 whole entry): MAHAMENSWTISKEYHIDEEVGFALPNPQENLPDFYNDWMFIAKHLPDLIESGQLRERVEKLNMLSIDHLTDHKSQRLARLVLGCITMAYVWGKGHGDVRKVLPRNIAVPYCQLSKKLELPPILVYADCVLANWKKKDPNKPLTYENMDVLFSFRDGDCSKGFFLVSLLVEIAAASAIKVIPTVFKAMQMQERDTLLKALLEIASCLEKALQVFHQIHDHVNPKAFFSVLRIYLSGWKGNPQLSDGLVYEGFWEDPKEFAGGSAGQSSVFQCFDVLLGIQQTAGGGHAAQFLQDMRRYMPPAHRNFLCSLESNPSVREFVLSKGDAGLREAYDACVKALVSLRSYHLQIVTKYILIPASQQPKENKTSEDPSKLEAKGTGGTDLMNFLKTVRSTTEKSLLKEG

On to `Cc1cccc(C2CCN(C(=O)Cn3nc(C(=O)N4CCC(O)CC4)c4c3CCC4)CC2(F)F)c1C` (single isomer, unassigned) [Example 14, 1-(4-(2,3-dimethylphenyl)-3,3-difluoropiperidin-1-yl)-2-(3-(4-hydroxypiperidine-1-carbonyl)-5,6-dihydrocyclopenta[c]pyrazol-1(4H)-yl)ethanone], for which the values for the IC50 at IDO1 [1] and against IDO1 [2] were 0.0034 µM and 1.39 µM, respectively. For `Cc1cccc(C2CCN(C(=O)Cn3nc(C(=O)N4CC[C@H](O)[C@H](F)C4)c4c3CCC4)CC2)c1C` (single isomer, unassigned) [Example 61, 1-(4-(2,3-dimethylphenyl)piperidin-1-yl)-2-(3-((3R,4S or 3S, 4R)-3-fluoro-4-hydroxypiperidine-1-carbonyl)-5,6-dihydrocyclopenta[c]pyrazol-1(4H)-yl)ethanone] the same measures were 0.0037 µM and 0.545 µM.

With `Cc1cccc(C2(F)CCN(C(=O)Cn3nc(C(=O)N4C[C@@H](C)O[C@@H](C)C4)c4c3CCC4)CC2)c1C` [Example 7, 2-(3-((2R,6S)-2,6-dimethylmorpholine-4-carbonyl)-5,6-dihydrocyclopenta[c]pyrazol-1(4H)-yl)-1-(4-(2,3-dimethylphenyl)-4-fluoropiperidin-1-yl)ethanone], the IC50 at IDO1 [1] worked out at 0.0032 µM; against IDO1 [2], 1.21 µM. The corresponding values for `Cc1cccc(C2(F)CCN(C(=O)Cn3nc(C(=O)N4CCC(O)CC4)c4c3CCC4)CC2)c1C` [Example 9, 1-(4-(2,3-dimethylphenyl)-4-fluoropiperidin-1-yl)-2-(3-(4-hydroxypiperidine-1-carbonyl)-5,6-dihydrocyclopenta[c]pyrazol-1(4H)-yl)ethanone] are 0.0111 µM and 3.37 µM. The corresponding values for `Cc1c(Cl)cccc1C1CCN(C(=O)Cn2nc(C(=O)N3CCN(C(=O)CO)CC3)c3c2C[C@H]2C[C@@H]32)CC1` [Example 17, 1-(4-(3-chloro-2-methylphenyl)piperidin-1-yl)-2-((3bR,4aR)-3-(4-(2-hydroxyacetyl)piperazine-1-carbonyl)-3b,4,4a,5-tetrahydro-1H-cyclopropa[3,4]cyclopenta[1,2-c]pyrazol-1-yl)ethanone] are 0.001 µM and 0.0596 µM.

For `Cc1cccc(C2CCN(C(=O)Cn3nc(C(=O)N4CCN(C(=O)CO)CC4)c4c3C[C@H]3C[C@@H]43)CC2)c1C` [Example 18, 1-[4-(2,3-dimethylphenyl)piperidin-1-yl]-2-{(3bR,4aR)-3-[4-(hydroxyacetyl)piperazine-1-carbonyl]-3b,4,4a,5-tetrahydro-1H-cyclopropa[3,4]cyclopenta[1,2-c]pyrazol-1-yl}ethan-1-one], the 50% inhibitory concentration (IC50) at IDO1 [1] was 0.0023 µM; at IDO1 [2] it was 0.0589 µM. `Cc1cccc(C2CCN(C(=O)Cn3nc(C(=O)N4CC[C@@H](O)[C@H](C)C4)c4c3C[C@H]3C[C@@H]43)CC2)c1C` [Example 19, 1-[4-(2,3-dimethylphenyl)piperidin-1-yl]-2-{(3bR,4aR)-3-[(3R,4R)-4-hydroxy-3-methylpiperidine-1-carbonyl]-3b,4,4a,5-tetrahydro-1H-cyclopropa[3,4]cyclopenta[1,2-c]pyrazol-1-yl}ethan-1-one]: the IC50 at IDO1 [1] is 0.0009 µM; on IDO1 [2], 0.219 µM.

On to `Cc1cccc(C2CCN(C(=O)Cn3nc(C(=O)N4CC[C@H](O)[C@H](C)C4)c4c3C[C@H]3C[C@@H]43)CC2)c1C` [Example 20, 1-[4-(2,3-dimethylphenyl)piperidin-1-yl]-2-{(3bR,4aR)-3-[(3R,4S)-4-hydroxy-3-methylpiperidine-1-carbonyl]-3b,4,4a,5-tetrahydro-1H-cyclopropa[3,4]cyclopenta[1,2-c]pyrazol-1-yl}ethan-1-one], for which the values for the IC50 on IDO1 [1] and against IDO1 [2] were 0.0009 µM and 0.0533 µM, respectively. For `Cc1cccc(C2CCN(C(=O)Cn3nc(C(=O)N4CC[C@H](O)[C@@H](C)C4)c4c3C[C@H]3C[C@@H]43)CC2)c1C` [Example 21, 1-[4-(2,3-dimethylphenyl)piperidin-1-yl]-2-{(3bR,4aR)-3-[(3S,4S)-4-hydroxy-3-methylpiperidine-1-carbonyl]-3b,4,4a,5-tetrahydro-1H-cyclopropa[3,4]cyclopenta[1,2-c]pyrazol-1-yl}ethan-1-one], the results for the IC50 on IDO1 [1] and at IDO1 [2] were 0.0009 µM and 0.328 µM, respectively.

On to `Cc1cccc(C2CCN(C(=O)Cn3nc(C(=O)N4CC[C@@H](O)[C@@H](C)C4)c4c3C[C@H]3C[C@@H]43)CC2)c1C` [Example 22, 1-[4-(2,3-dimethylphenyl)piperidin-1-yl]-2-{(3bR,4aR)-3-[(3S,4R)-4-hydroxy-3-methylpiperidine-1-carbonyl]-3b,4,4a,5-tetrahydro-1H-cyclopropa[3,4]cyclopenta[1,2-c]pyrazol-1-yl}ethan-1-one], for which the IC50 at IDO1 [1] came out at 0.0011 µM; against IDO1 [2], 0.0691 µM. For `Cc1cccc(C2CCN(C(=O)Cn3nc(C(=O)N4CC[C@@H](O)[C@@H](F)C4)c4c3C[C@H]3C[C@@H]43)CC2)c1C` [Example 25, 1-[4-(2,3-dimethylphenyl)piperidin-1-yl]-2-{(3bR,4aR)-3-[(3S,4R)-3-fluoro-4-hydroxypiperidine-1-carbonyl]-3b,4,4a,5-tetrahydro-1H-cyclopropa[3,4]cyclopenta[1,2-c]pyrazol-1-yl}ethan-1-one] the same measures were 0.0016 µM and 0.192 µM.

Turning to `Cc1cccc(C2CCN(C(=O)Cn3nc(C(=O)N4CC[C@H](O)[C@H](F)C4)c4c3C[C@H]3C[C@@H]43)CC2)c1C` [Example 26, 1-[4-(2,3-dimethylphenyl)piperidin-1-yl]-2-{(3bR,4aR)-3-[(3R,4S)-3-fluoro-4-hydroxypiperidine-1-carbonyl]-3b,4,4a,5-tetrahydro-1H-cyclopropa[3,4]cyclopenta[1,2-c]pyrazol-1-yl}ethan-1-one], the IC50 on IDO1 [1] was determined as 0.0018 µM; at IDO1 [2] it was 0.258 µM. For `Cc1cccc(C2CCN(C(=O)Cn3nc(C(=O)N4CCC(O)(CF)CC4)c4c3CCC4)CC2)c1C` [Example 31, 1-[4-(2,3-dimethylphenyl)-1-piperidyl]-2-[3-[4-(fluoromethyl)-4-hydroxy-piperidine-1-carbonyl]-5,6-dihydro-4H-cyclopenta[c]pyrazol-1-yl]ethanone], the IC50 on IDO1 [1] is 0.0051 µM; on IDO1 [2], 0.0876 µM. The corresponding values for `Cc1cccc(C2CCN(C(=O)Cn3nc(C(=O)N4CC[C@H](O)[C@@H](F)C4)c4c3CCCC4)CC2)c1C` [Example 32, 1-(4-(2,3-dimethylphenyl)piperidin-1-yl)-2-(3-((3S,4S)-3-fluoro-4-hydroxypiperidine-1-carbonyl)-4,5,6,7-tetrahydro-1H-indazol-1-yl) ethanone] are 0.0008 µM and 0.0837 µM. As to `COc1ccc(Cl)cc1C1CCN(C(=O)Cn2nc(C(=O)N3C[C@@H](C)O[C@@H](C)C3)c3c2CCC3)CC1` [Example 170, 1-[4-(5-chloro-2-methoxyphenyl)piperidin-1-yl]-2-{3-[(2R,6S)-2,6-dimethylmorpholine-4-carbonyl]-5,6-dihydrocyclopenta[c]pyrazol-1(4H)-yl}ethan-1-one], the IC50 at IDO1 [1] came out at 0.361 µM.

As for `C[C@@H]1CN(C(=O)c2nn(CC(=O)N3CCC(c4cccc5cnccc45)CC3)c3c2CCC3)C[C@H](C)O1` [Example 171, 2-{3-[(2R,6S)-2,6-dimethylmorpholine-4-carbonyl]-5,6-dihydrocyclopenta[c]pyrazol-1(4H)-yl}-1-[4-(isoquinolin-5-yl)piperidin-1-yl]ethan-1-one], on IDO1 [1], the IC50 turned out to be 0.44 µM.

For the compound `Cc1c(C2CCN(C(=O)Cn3nc(C(=O)N4C[C@@H](C)O[C@@H](C)C4)c4c3CCC4)CC2)ccc(F)c1F` [Example 174, 1-[4-(3,4-difluoro-2-methylphenyl)piperidin-1-yl]-2-{3-[(2R,6S)-2,6-dimethylmorpholine-4-carbonyl]-5,6-dihydrocyclopenta[c]pyrazol-1(4H)-yl}ethan-1-one], the IC50 at IDO1 [1] is 0.0103 µM.
